In one series the target is Cot (Homo sapiens, UniProt P41279). The note with it: cited from earlier work.
The target in a further series is CYP 2C19 (Homo sapiens, UniProt P33261). As to the kind of experiment: CYP inhibition, 2C19.
Series [1] in a line: liver microsome stability study (BioDuro-Sundia). A general note: Microsomes from liver hold many membrane-bound enzymes, among them those of drug oxidation.
The next series relates to CYP isoforms 3A4/5. The series can be described thus: CYP inhibition, 3A4/5.
Series [2] has as its system phospho-p42/44 MAPK in MiaPaCa2 cells. The series can be described thus: p42/44 MAPK phosphorylation, western blotting, MiaPaCa2. Format: cell-based, human. The note with it: MiaPaCa2, MEK4 inhibitor 10 μM, 5 hours. The procedure: (§1) The effects of different treatments on phospho-p42/44 MAPK and total p42/44 MAPK expression levels were determined by western blotting. HSP90 was used as loading control. The blots are representative of at least three biological replicates.
(§2) Whole cell extracts of cultured cells were prepared in radioimmunoprecipitation (RIPA) lysis buffer supplemented with phosphatase and protease inhibitors (Calbiochem). Protein concentration was determined by the bicinchoninic acid assay (BCA) (ThermoFisher) and separated by the SDS-PAGE technique. […] Secondary anti-mouse IgG (A4416) and anti-rabbit IgG (A6667) antibodies were purchased from Sigma-Aldrich and used a 1:4000 dilution. Images of blots were acquired on HyBlot ES Autoradiography Film (Thomas Scientific, Swedesboro, NJ, USA) following incubation with SuperSignal West Pico PLUS (ThermoFisher).
On the technique in general: A western blot detects proteins with antibodies after separation by electrophoresis.

A further series addresses CYP 2D6 (Homo sapiens, UniProt P10635). As to the kind of experiment: CYP inhibition, 2D6.
A further series relates to MiaPaCa2 cells. The series can be described thus: cell proliferation (cell count after 72 hours), MiaPaCa2. Type of series: cell-based, human. The note with it: MiaPaCa2, 72 hours, varying doses, single agent. The procedure:
(§3) After 72 hours, cells were trypsinized, counted, and the cell numbers were normalized against the DMSO treatment. Mean±SD. Graphs are representative of 3 biological replicates.
as §3
(§4) Cell numbers from different treatments were normalized against the DMSO treatment, and CDI is calculated as follows: CDI=AB/(A×B), with AB being the ratio of the combination groups to control group and A or B being the ratio of the single agent group to the DMSO group. Mean±SEM from 3 biological replicates.
(§5) We also examined the effects of these inhibitors on JNK phosphorylation and proliferation of two pancreatic cancer cell lines (CD18 and MiaPaCa2).
(§6) Human pancreatic cancer cell lines (CD18/HPAF-II and MiaPaCa2) and HEK293T cells were obtained from American Type Culture Collection. All cell lines were cultured according to the manufacturer's protocol. All media contained 10% Fetal Bovine Serum (FBS) and antibiotics (100 U/mL Penicillin and 100 μg/mL Streptomycin).

The target in a further series is CYP 2C9 (Homo sapiens, UniProt P11712). The series can be described thus: CYP inhibition, 2C9.
The test system of a further series is CD18 cells. As to the kind of experiment: cell proliferation (cell count after 72 hours), CD18. Format: cell-based, human. The settings on record: CD18, 72 hours, varying doses, single agent. The procedure:
as §3, §3, §4, §5, §6

The test system of series [3] is phospho-p38 MAPK in HEK293T cells. As to the kind of experiment: p38 MAPK phosphorylation, western blotting, HEK293T. Format: cell-based, human. The note with it: anisomycin pretreatment, compound 100 μM, 5 hours. The procedure:
(§7) HSP90 was used as loading control. The blots are representative of at least three biological replicates.
(§8) We next evaluated the effects of our inhibitors on the phosphorylation activity and expression of MEK1/2, MEK3/6, and MEK7. […] We also evaluated the effects on p42/44 MAPK (ERK1/2), which functions downstream of MEK1/2.
as §2

The test system of series [4] is JNK phosphorylation in HEK293T cells. The series can be described thus: anisomycin-induced JNK phosphorylation, western blotting, HEK293T. Format: cell-based, human. The note with it: anisomycin 45 minutes then compound 5 hours, increasing doses. The procedure:
The blots are representative of at least three biological replicates.
as §5, §6, §2

In another series the target is T1, MEK7 (Homo sapiens, UniProt O14733).
T1 construct: purchased Carna Biosciences
T1 sequence (O14733 1-419): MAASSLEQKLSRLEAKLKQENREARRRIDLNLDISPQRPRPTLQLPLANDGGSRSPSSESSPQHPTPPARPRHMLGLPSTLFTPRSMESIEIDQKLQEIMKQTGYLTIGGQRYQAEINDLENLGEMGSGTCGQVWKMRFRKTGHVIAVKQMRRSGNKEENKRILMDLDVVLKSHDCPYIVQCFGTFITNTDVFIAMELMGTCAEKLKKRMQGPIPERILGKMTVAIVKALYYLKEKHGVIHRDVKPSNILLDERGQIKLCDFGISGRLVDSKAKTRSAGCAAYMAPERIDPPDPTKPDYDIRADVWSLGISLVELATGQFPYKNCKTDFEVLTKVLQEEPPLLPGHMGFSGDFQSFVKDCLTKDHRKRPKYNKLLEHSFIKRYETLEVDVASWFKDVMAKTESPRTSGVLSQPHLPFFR
The series can be described thus: ADP-Glo kinase activity assay, MEK7. Format: biochemical. The procedure:
The compounds were then evaluated both in vitro and in a cellular system. When studying kinase inhibitors, there are a multitude of ways to evaluate selectivity across kinases.
Procedure for a 5 μL Kinase reaction using the ADP-Glo Kinase Assay Kit from Promega. Staurosporine was used as the positive control, and DMSO as the negative control. Activity of recombinant active full-length human MEK4 (Carna Biosciences) was measured using the ADP-Glo assay with recombinant full-length human p38α (MAPK14). Kinase reactions with MEK7 (Carna Biosciences) were done at the same concentration and amounts with recombinant full-length human p38α (MAPK14).
For each well, 4 ng of MEK4 and 600 ng of p38α in Kinase buffer (CST) were used, and 1 μL of this mixture was dispensed per well.
Inhibitor was prepared in a DMSO solution. A dose response dilution was done in a 384-well Echo transfer plate. […] This mixture was allowed to incubate for 30 minutes at room temperature.
Using a Mantis, 1 μL, of an 8 μM ATP solution was added to each well, and the plate was allowed to incubate for another 1 hour at room temperature. […] All experiments were done in triplicate on the plate, and at least in one separate technical duplicate.

The test system of another series is HEK293T cells. As to the kind of experiment: cell proliferation (cell count after 72 hours), HEK293T. The settings on record: varying doses. Type of series: cell-based, human. The procedure:
After 72 hours, cells were trypsinized, counted, and the cell numbers were normalized against the DMSO treatment. Mean±SD. Graphs are representative of 3 biological replicates. One-way ANOVA; ns, non-significant **, p<0.01 ***, p<0.001.
as §5, §6

In another series the target is CYP 1A2 (Homo sapiens, UniProt P05177).
Series [5] deals with phospho-p42/44 MAPK in HEK293T cells. The series can be described thus: p42/44 MAPK (ERK1/2) phosphorylation, western blotting, HEK293T. The settings on record: anisomycin pretreatment, compound 100 μM, 5 hours. Format: cell-based, human. The procedure:
as §7, §8, §2

Series [6] has as its system JNK phosphorylation in MiaPaCa2 cells. As to the kind of experiment: anisomycin-induced JNK phosphorylation, western blotting, MiaPaCa2. Type of series: cell-based, human. The settings on record: MiaPaCa2, anisomycin 45 minutes then compound 5 hours. The procedure: as §7, §5, §6, §2
Series [7] is described as follows: PAMPA assay (BioDuro-Sundia). Format: in vitro ADME.
Series [8] is described as follows: Log D study (BioDuro-Sundia). The note with it: pH of 7.4.
Series [9] concerns MEK7 expression in HEK293T cells. As to the kind of experiment: MEK7 expression, western blotting, HEK293T. The note with it: anisomycin pretreatment, compound 100 μM, 5 hours. Type of series: cell-based, human. The procedure:
as §7, §8, §2

Series [10] has as its system JNK phosphorylation in CD18 cells. As to the kind of experiment: anisomycin-induced JNK phosphorylation, western blotting, CD18. Format: cell-based, human. The settings on record: CD18, anisomycin 45 minutes then compound 5 hours. The procedure: as §7, §5, §6, §2
Series [11] concerns phospho-p42/44 MAPK in CD18 cells. The series can be described thus: p42/44 MAPK phosphorylation, western blotting, CD18. The settings on record: CD18, MEK4 inhibitor 10 μM, 5 hours. Format: cell-based, human. The procedure:
as §1, §2

The next series concerns Caco-2. The series can be described thus: Caco-2 permeability assay. Type of series: in vitro ADME. For orientation: Caco-2 cells form a polarised layer with tight junctions and transporters.

The structures appear in SMILES notation. “Also recorded” adds a separate entry of the source. Read-outs that look alike come from different tables or passages of the source.

Sequence of CYP 2C19 (P33261 whole entry): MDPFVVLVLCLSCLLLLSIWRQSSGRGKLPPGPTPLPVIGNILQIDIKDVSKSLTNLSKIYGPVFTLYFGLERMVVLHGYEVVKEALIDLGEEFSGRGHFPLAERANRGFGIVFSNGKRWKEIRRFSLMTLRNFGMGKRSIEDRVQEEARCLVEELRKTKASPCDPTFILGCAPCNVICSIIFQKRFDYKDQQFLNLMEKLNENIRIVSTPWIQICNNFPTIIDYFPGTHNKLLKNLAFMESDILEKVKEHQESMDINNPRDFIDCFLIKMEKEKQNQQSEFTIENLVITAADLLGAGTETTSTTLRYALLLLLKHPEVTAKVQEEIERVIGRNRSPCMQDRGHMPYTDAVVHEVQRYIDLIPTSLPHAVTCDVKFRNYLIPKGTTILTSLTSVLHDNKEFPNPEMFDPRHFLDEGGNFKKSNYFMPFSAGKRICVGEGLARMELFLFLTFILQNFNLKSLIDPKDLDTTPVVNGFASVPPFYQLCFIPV
Sequence of Cot (P41279 whole entry): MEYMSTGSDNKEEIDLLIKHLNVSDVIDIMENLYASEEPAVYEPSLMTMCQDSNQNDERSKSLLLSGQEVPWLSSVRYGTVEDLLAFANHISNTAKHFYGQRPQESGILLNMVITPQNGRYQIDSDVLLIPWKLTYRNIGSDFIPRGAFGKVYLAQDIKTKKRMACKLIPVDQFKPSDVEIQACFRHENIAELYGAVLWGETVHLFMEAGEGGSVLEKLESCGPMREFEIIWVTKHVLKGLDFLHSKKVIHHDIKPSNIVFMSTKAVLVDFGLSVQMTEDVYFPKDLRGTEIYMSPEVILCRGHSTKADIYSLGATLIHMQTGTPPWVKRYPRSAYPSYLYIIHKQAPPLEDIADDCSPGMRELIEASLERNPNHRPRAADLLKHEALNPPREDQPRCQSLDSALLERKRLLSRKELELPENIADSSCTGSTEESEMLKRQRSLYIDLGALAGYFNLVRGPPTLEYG
Sequence of CYP 2D6 (P10635 whole entry): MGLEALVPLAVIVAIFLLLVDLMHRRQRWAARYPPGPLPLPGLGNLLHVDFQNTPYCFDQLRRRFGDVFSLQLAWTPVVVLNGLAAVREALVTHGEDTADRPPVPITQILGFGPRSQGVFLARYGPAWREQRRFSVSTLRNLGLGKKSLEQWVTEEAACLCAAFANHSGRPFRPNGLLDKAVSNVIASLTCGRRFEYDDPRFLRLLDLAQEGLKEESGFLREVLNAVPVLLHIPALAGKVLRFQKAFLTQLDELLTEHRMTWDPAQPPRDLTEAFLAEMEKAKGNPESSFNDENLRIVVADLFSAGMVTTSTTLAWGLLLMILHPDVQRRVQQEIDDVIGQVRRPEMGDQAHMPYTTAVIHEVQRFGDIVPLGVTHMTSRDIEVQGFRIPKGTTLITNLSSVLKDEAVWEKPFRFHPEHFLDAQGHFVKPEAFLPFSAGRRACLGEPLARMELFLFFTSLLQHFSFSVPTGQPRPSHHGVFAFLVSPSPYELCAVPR
Sequence of CYP 1A2 (P05177 whole entry): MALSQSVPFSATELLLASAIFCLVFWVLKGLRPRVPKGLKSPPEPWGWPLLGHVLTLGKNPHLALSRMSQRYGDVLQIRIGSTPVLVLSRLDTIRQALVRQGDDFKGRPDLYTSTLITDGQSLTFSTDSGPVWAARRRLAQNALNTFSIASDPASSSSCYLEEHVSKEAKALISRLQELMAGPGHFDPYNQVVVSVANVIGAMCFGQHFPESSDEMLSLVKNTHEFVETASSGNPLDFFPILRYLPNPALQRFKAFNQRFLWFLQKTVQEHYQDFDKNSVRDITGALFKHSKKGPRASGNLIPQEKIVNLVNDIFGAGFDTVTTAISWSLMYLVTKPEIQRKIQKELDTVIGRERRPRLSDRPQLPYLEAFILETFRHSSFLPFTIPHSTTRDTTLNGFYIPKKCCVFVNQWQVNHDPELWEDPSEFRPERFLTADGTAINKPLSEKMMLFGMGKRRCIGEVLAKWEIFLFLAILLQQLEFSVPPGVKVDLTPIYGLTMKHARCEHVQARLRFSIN
Sequence of CYP 2C9 (P11712 whole entry): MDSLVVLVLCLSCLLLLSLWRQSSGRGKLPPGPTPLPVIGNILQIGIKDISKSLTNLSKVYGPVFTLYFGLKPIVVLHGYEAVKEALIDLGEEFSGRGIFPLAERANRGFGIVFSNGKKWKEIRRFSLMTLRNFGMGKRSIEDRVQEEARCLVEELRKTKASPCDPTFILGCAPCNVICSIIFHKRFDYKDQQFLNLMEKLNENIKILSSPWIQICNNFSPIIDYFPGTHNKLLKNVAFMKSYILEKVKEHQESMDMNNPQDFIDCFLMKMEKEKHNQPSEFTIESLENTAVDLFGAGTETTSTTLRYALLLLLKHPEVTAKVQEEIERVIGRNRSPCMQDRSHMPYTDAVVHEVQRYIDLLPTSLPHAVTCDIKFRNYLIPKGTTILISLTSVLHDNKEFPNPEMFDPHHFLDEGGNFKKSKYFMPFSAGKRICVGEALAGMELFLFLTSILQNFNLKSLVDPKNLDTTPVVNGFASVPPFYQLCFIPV

In the case of `O=c1c(-c2ccc(O)c(O)c2)coc2cc(O)ccc12` [THIF, 7,3′,4′-trihydroxyisoflavone], on Cot, the “Cot activity (literature)” value is on record as “inhibits”.
Usually IC50 stands for the concentration needed to halve the response being measured. Broadly, the log D is lipophilicity at a set pH, counting ionised and neutral species. Low readings indicate a more hydrophilic compound, high ones a more lipophilic compound. Turning to `NS(=O)(=O)c1ccc(-c2n[nH]c3cc(F)ccc23)cc1` [Compound 10e, 4-(6-fluoro-1H-indazol-3-yl)benzenesulfonamide], the “inhibition of CYP 2C19” value at CYP 2C19 was “inhibited”. Moreover, in series [1] (liver microsome), the “half-life in the microsome assay” value was determined as 1.9 h. Further, the “stability in the microsome assay” value in [1] (microsomes) is “good stability”. Besides, the “inhibition of CYP isoforms 3A4/5” value with CYP isoforms 3A4/5 is recorded as “did not inhibit”. Moreover, the “effect on p42/44 MAPK phosphorylation” value in series [2] is “did not induce p42/44 MAPK phosphorylation”; in series [11], “increased p42/44 MAPK phosphorylation”. In addition, the “inhibition of CYP 2D6” value against CYP 2D6 was “avoided inhibiting”. The results for the cell proliferation result in the series with MiaPaCa2 cells, in the series with CD18 cells and with HEK293T cells were “decreased proliferation; also recorded: antiproliferative properties”, “decreased proliferation; also recorded: antiproliferative properties” and “decreased. HEK293T cell proliferation in a dose-dependent manner”, respectively. The “inhibition of CYP 2C9” value against CYP 2C9 is reported as “avoided inhibiting”. In addition, the “effect on anisomycin-induced p38 MAPK phosphorylation” value in [3] is “not affected”. Moreover, the “effect on anisomycin-induced JNK phosphorylation” value in series [4] was “attenuated anisomycin-induced INK phosphorylation in a dose-dependent manner”; in series [6], “attenuated anisomycin-induced JNK phosphorylation”; in series [10], “attenuated anisomycin-induced JNK phosphorylation”. The half-inhibitory concentration (IC50) on MEK7 was found to be 520 ± 670 nM; at MEK7 (headline value per compound, read-out: MEK7 IC50) it was 540 nM; at MEK7 (individual experiment, values in brackets, n=3, read-out: MEK7 IC50 of each experiment (IC50±SEM)) it was 560 ± 220 nM. Also, at CYP 1A2, the “inhibition of CYP 1A2” value is reported as “inhibited”. For the same compound, the “effect on p42/44 MAPK phosphorylation after anisomycin” value in series [5] is given as “reversed the effects of anisomycin”. Moreover, the “permeability in the PAMPA assay” value in [7] is “performed slightly better”. Moreover, the “log D” value in series [8] is given as 2.80. For the same compound, in series [9], the “effect on the expression of MEK7” value is listed as “no effect”. Besides, the Caco-2 permeability entry in the series with Caco-2 is given as “medium to high permeability”.

The values are drawn from patent US20240116875A1, “RATIONAL DESIGN, OPTIMIZATION, AND BIOLOGICAL EVALUATION OF NOVEL MEK4 INHIBITORS AGAINST PANCREATIC ADENOCARCINOMA” (NORTHWESTERN UNIVERSITY, priority 2022, published 2024).
